Assay results published in patent US7118731B2, “Drugs for the diagnosis of tissue reproductive activity or the treatment of proliferative diseases” (priority 2002, dated 2006).
Like-named read-outs stand apart in the source and are kept apart here. Marks after values point to notes of the source that are not given here.

Columns and labels:
[1] = literature; cited from earlier work
Walker tumor = test: scintigraphy of Walker tumor; assay type: in vivo; conditions: 37 MBq into tail vein, four hours after administration, Walker tumor in Wistar rats, FIG. 11
Method: Malignant tumor, a typical proliferative disease, was observed by scintigraphy. Walker tumor cells were transplanted subcutaneously in the right inguinal region of Wistar rats. After the transplantation, 37 MBq of [I-123] ITDU was injected into the tail vein of rats that suffered a palpable tumor of about 20 mm that was suitable for scintigraphy. Each tumor-transplanted rat was anesthetized with Ravonal four hours after the administration of a drug. Then the rat was fixed in the face-up position and observed statically with gamma-camera imaging equipment (GCA-90B, Toshiba Corporation). Imaging was performed using a high-resolution medium-energy collimator to obtain images for 10 minutes with a resolution of 256×256.

L-M (TK-) cells = test: incorporation of labeled compounds into thymidine kinase-deficient L-M (TK-) cells; assay type: cell-based; conditions: 2 nmol labeled compound, one hour
Method: (§1) L-M and L-M (TK-) cells in the logarithmic growth phase were planted on 24-well plates, each carrying 2.0×10^5 cells, and cultured overnight. Then 2 nmol of a radioactive iodine-labeled nucleic acid derivative was added and allowed to be incorporated in the cells for one hour. The cells were washed three times with an ice-cooled phosphate buffer solution, and dissolved in 0.1N NaOH, followed by determination of degree of radioactivity incorporated in the cells using an automatic well-type gamma counter (ARC-380 or ARC-300, Aloka Co., Ltd.). Measurements were analyzed to make evaluations based on the amount of the incorporated label molecules per unit weight of cellular proteins. […] ITdU and [I-125] […] IUR as a control.

[2] = in vivo label stability, accumulation of free iodine in thyroid gland (Example 17); conditions: 185 KBq into tail vein, 10 week old normal mice (C57BL/6), longer intervals, FIG. 8
Method: To evaluate in vivo stability of deiodination against each radioactive iodine-labeled nucleic acid derivative, tests were conducted to study accumulation of free iodine in the thyroid gland of normal mice. A 185 KBq of each labeled compound was injected in each of 10 week old normal mice (C57BL/6) into the tail vein, and three animals were sacrificed and anatomized at intervals longer than in Example 16. Incorporation of radioactivity in the thyroid gland was measured with an automatic well-type gamma counter (ARC-300, Aloka Co., Ltd.). Incorporated radioactivity in tissue (% ID) was calculated as the administrated per gram of the tissue, and represented in percentage, as shown in FIG. 8.

L-M cells = test: incorporation of labeled compounds into L-M cells; assay type: cell-based; conditions: for Incorporation, L-M: 2 nmol labeled compound, one hour, L-M cells; for thymidine kinase-dependent incorporation into cells: L-M versus L-M (TK-) cells; for (L-M)/{L-M(TK-)}: ratio of incorporation, L-M to L-M (TK-), T-test
Method: as §1

[3] = biological target: T1, E. coli-originating thymidine phospholylase (Escherichia coli, UniProt P07650); conditions: for 5-IU production rate: 0.5–12.0 nmol labeled compound, 0.0009–9.0 units enzyme, n = 3; for 5-IU production rate / metabolic stability of glycosidic bond compared with [I-125] IUR: 25° C.; for Relative activity (C—N glycosidic linkage cleavage): relative to [I-125]IUR = 1.00; for metabolic stability of glycosidic bond compared with [I-125] IUR: thymidine phospholylase
Method: To the reaction liquid, 0.5–12.0 nmol of the labeled compound and 0.0009–9.0 units of a liquid enzyme (Sigma Corporation) was added and reacted at 25° C. for a fixed period of time, followed by treatment in a boiling water bath for 3 minutes to stop the reaction. […] The reaction liquid was subjected to centrifugal separation, and the supernatant was applied over a silica gel plate along with an authentic standard (5-iodouridine: IU) and a non-labeled parent compound. It was developed with a mixture of chloroform and isopropyl alcohol (3:1), and then the autoradiogram was measured with a bioimaging analyzer (BAS-1500, Fuji Photo Film Co., Ltd.). The area of interest was set to peak components of the Rf value corresponding to the authentic standard, and the amount of the resulting metabolite was calculated from its proportion in percentage. […] FITAU and [I-125] IMBAU, a reversed phase silica gel plate was used, and after development with a mixture of methanol and water (3:7), an autoradiogram was measured with a bioimaging analyzer (BAS-1500; Fuji Photo Film Co., Ltd.) similarly to the [I-125] IUR and others.

[4] = in vivo label stability, accumulation of free iodine in thyroid gland (Example 16); conditions: 370 KBq into tail vein, 10 week old normal mice, FIG. 7
Method: To evaluate in vivo label stability of [I-125] ITDU and [I-125] ITAU, tests were conducted to study the accumulation of free iodine in the thyroid gland in normal mice. […] For a control, in vivo distribution of [I-125] IUR was also observed. […] Incorporated radioactivity in tissue was calculated as the administrated dose per gram of the tissue per unit time, and represented in percentage, as shown in FIG. 7. […] ITDU and [I-125]

thymidine kinase = test: in vitro phosphorylation activity by thymidine kinase (crude enzyme from LL/2 cells); assay type: biochemical, mouse; conditions: for phosphorylation activity attributed to thymidine kinase: crude enzyme from LL/2 cells; for Phosphorylated material production rate: crude enzyme from LL/2 mouse lung cancer cells, 2 nmole labeled compound, ATP, 37° C., n = 3
Method: Liquid enzyme was extracted from a LL/2 mouse's lung cancer cell strain in the logarithmic growth phase according to the method of Wolcott R M and Colacino J M (Anal. Biochem 178, p.38–40 (1989)). To a reaction liquid containing ATP, which is a phosphate donor, 2 nmole of the label compound and the liquid enzyme were added and reacted at 37° C. for a fixed period of time. The reaction was stopped by adding 1 mL of a 100 mM lanthanum chloride/5 mM triethanolamine solution. Phosphorylated material was prepared by centrifugal separation to form a phosphate-metal complex, followed by measuring a radioactivity of the resulting precipitate with an automatic well-type gamma counter (ARC-380, Aloka Co., Ltd.). […] ITDU and [I-125] ITAU.

[5] = biological target: T1, E. coli-originating thymidine phospholylase; conditions: for 5-iodouridine production rate: 2 nmole labeled compound, 9 units enzyme, n = 3; for 5-iodouridine production rate / metabolic stability of glycosidic bond compared with [I-125] IUR: 25° C.; for relative activity (C—N glycosidic bond cleavage): relative to [I-125]IUR = 1.00; for metabolic stability of glycosidic bond compared with [I-125] IUR: thymidine phospholylase
Method: To the reaction liquid, 2 nmole of the labeled compound and 9 units of a liquid enzyme (Sigma Corporation) were added and reacted at 25° C. for a fixed period of time, and the reaction was stopped by treatment in a boiling water bath for 3 minutes. The reaction liquid was subjected to centrifugal separation, and the supernatant was applied over a thin layer silica gel plate along with an authentic standard (5-iodouridine: IU) and a non-labeled parent compound. It was developed with a mixture of chloroform and isopropyl alcohol (3:1), and then autoradiography was measured with a bioimaging analyzer (BAS-1500, Fuji Photo Film Co., Ltd.). The area of interest was set to peak components of the Rf value corresponding to the authentic standard, and the amount of the resulting metabolite was calculated from its proportion in percentage.

[6] = in vivo distribution of [I-125] ITDU in normal mice; conditions: 370 KBq into tail vein, FIG. 9
Method: A 370 KBq of [I-125] ITDU was injected in each of 10 week old normal mice into the tail vein, and three animals were sacrificed and anatomized at appropriate intervals. Incorporation of radioactivity in each tissue sample was measured with an automatic well-type gamma counter (ARC-300, Aloka Co., Ltd.). Incorporated radioactivity in tissue was calculated as the administrated dose per gram of the tissue, and represented in percentage, as shown in FIG. 9.

[7] = in vivo accumulation in proliferating tissues of normal mice; conditions: 185 MBq through tail vein, normal mice (C57BL/6), FIG. 10
Method: To evaluate the accumulation of each radioactive iodine-labeled nucleic acid derivative in proliferating tissues, tests were conducted to study in vivo distribution in normal mice. A 185 MBq of each labeled compound was injected in each of 10 week old normal mice (C57BL/6) through its tail vein, and three animals were sacrificed and anatomized at appropriate intervals. Incorporation of radioactivity in each tissue sample was measured with an automatic well-type gamma counter (ARC-300, Aloka Co., Ltd.). Incorporated radioactivity in tissue was calculated as the administrated dose per unit weight of the tissue, and represented in percentage (% ID/g).

T1 sequence (P07650 whole entry): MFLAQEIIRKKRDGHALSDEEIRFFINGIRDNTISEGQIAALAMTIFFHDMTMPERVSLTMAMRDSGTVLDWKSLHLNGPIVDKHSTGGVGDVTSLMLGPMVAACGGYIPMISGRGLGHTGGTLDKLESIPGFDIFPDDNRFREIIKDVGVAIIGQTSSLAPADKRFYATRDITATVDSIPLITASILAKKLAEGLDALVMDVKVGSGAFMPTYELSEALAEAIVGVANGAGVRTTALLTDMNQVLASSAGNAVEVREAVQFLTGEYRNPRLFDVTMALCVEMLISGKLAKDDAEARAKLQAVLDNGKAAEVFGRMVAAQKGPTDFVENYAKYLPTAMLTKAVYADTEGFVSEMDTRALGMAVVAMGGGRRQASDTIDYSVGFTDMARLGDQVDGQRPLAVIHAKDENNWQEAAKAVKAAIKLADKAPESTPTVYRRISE

| SMILES | stability in vivo [1] | Incorporation, L-M (TK−) (L-M (TK-) cells) [pmol/mg protein/h] | accumulated radioactivity in the thyroid gland (in vivo label stability) [2] | Incorporation, L-M (L-M cells) [pmol/mg protein/h] | thymidine kinase-dependent incorporation into cells (L-M cells) | (L-M)/{L-M(TK-)} (L-M cells) | 5-IU production rate [3] [pmol/units/0.5 h] | Relative activity (C—N glycosidic linkage cleavage) [3] | relative activity (C—N glycosidic bond cleavage) [5] | also measured |
| --- | --- | --- | --- | --- | --- | --- | --- | --- | --- | --- |
| O=c1[nH]c(=O)n([C@@H]2O[C@H](CO)[C@@H](O)[C@@H]2F)cc1I [2′-fluoro-5-iodoarabinouridine] | high stability in vivo |  |  |  |  |  |  |  |  |  |
| Cc1cn([C@H]2C[C@H](F)[C@@H](CO)O2)c(=O)[nH]c1=O [3′-deoxy-3′-fluorothymidine] | high stability in vivo |  |  |  |  |  |  |  |  |  |
| O=c1[nH]c(=O)n([C@H]2C[C@H](O)[C@@H](CO)O2)cc1I [5-iodo-deoxyuridine] | decomposed rapidly in vivo |  |  |  |  |  |  |  |  |  |
| O=c1[nH]c(=O)n([C@H]2C[C@H](O)[C@@H](CO)S2)cc1[123I] [[I-123] ITDU, [I-123]-5-iodo-4′-thio-2′-deoxyuridine] |  |  |  |  |  |  |  |  |  | scintigraphic imaging of transplanted tumor (Walker tumor): clear imaging of transplanted tumors |
| O=c1[nH]c(=O)n([C@@H]2S[C@H](CO)[C@@H](O)[C@@H]2F)cc1[125I] [[I-125] FITAU, [I-125]-5-iodo-1-(2-deoxy-2-fluoro-4-thio-β-D-arabinopentofuranosyl)uracil] |  | 0.21 ± 0.05 | significantly smaller than that from the control [I-125] IUR | 0.34 ± 0.05 | incorporated in cells in a thymidine kinase dependent way | 1.62*** | 0.5 ± 0.1 | <0.00001 |  | metabolic stability of glycosidic bond compared with [I-125] IUR [3]: still stabler than [I-125] IUR |
| Cn1c(=O)c([125I])cn([C@@H]2O[C@H](CO)[C@@H](O)[C@@H]2Br)c1=O [[I-125] IMBAU, [I-125]-5-iodo-1-methyl-(2-deoxy-2-bromo-β-D-arabinopentofuranosyl)uracil] |  |  | significantly smaller than that from the control [I-125] IUR |  |  |  | 0.0 | 0.0 |  | stability under heat treatment ([3]; boiling water bath for 3 minutes used to stop the reaction): unstable under heat treatment; metabolic stability of glycosidic bond compared with [I-125] IUR [3]: still stabler than [I-125] IUR |
| O=c1[nH]c(=O)n(C2S[C@H](CO)[C@@H](O)[C@@H]2O)cc1[125I] (stereo partly drawn) [[I-125] ITAU, [I-125]-5-iodo-1-(4-thio-D-arabinofuranosyl)uracil] |  | 1.20 ± 0.20 | significantly smaller than that from the control [I-125] IUR | 1.68 ± 0.28 |  | 1.40** | 514.8 ± 367.0 | <0.01 | < 0.01 | accumulated radioactivity in the thyroid gland (in vivo label stability) [4]: significantly smaller than that from the control [I-125] IUR; phosphorylation activity attributed to thymidine kinase (thymidine kinase): confirmed; Phosphorylated material production rate (thymidine kinase): 13.6 ± 6.6 p mole/mg protein/h; 5-iodouridine production rate [5]: 524.3 ± 373.8 p mole/units/30 min; metabolic stability of glycosidic bond compared with [I-125] IUR [5]: stabler than 5-iododeoxyuridine |
| O=c1[nH]c(=O)n([C@H]2C[C@H](O)[C@@H](CO)S2)cc1[125I] [[I-125] ITDU, [I-125]-5-iodo-4′-thio-2′-deoxyuridine] |  | 3.94 ± 0.63 | significantly smaller than that from the control [I-125] IUR | 10.90 ± 1.48 | incorporated in cells in a thymidine kinase dependent way | 2.77* | 3778.7 ± 692.0 |  | 0.03 | accumulated radioactivity in proliferating tissues (thymus, small intestine) versus non-proliferating tissues (brain, liver, muscle) [6]: certainly higher than that in non-proliferating tissues; accumulated radioactivity in the thyroid gland (in vivo label stability) [4]: significantly smaller than that from the control [I-125] IUR; accumulation in proliferating tissues (% ID/g) [7]: accumulated in large amounts particularly in the thymus; phosphorylation activity attributed to thymidine kinase (thymidine kinase): confirmed; Phosphorylated material production rate (thymidine kinase): 1182.7 ± 100.1 p mole/mg protein/h; 5-iodouridine production rate [5]: 4075.9 ± 736.4 p mole/units/30 min; metabolic stability of glycosidic bond compared with [I-125] IUR [5]: stabler than 5-iododeoxyuridine |
| O=c1[nH]c(=O)n([C@H]2C[C@H](O)[C@@H](CO)O2)cc1I [[I-125] IUR, 5-iododeoxyuridine, reference compound] |  | 27.86 ± 2.94 |  | 77.80 ± 7.45 | incorporated in cells in a thymidine kinase dependent way | 2.79* |  | 1.00 | 1.00 | accumulation in proliferating tissues (% ID/g) [7]: accumulated in large amounts particularly in the thymus |
